Measurements published in ChEMBL document CHEMBL1201862, “PubChem BioAssay data set” (2004).
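96-well plates; 48 h exposure; 5 concentrations. Endpoints by linear interpolation between flanking doses. Not reached: highest tested concentration assigned. At the GI50, growth is halved.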 Active and inactive are the calls of the source. Rule as the data show it: active = GI50 up to about 1.1 µM and inactive = higher.

Assays:
Test in all cases: NCI anticancer screen, dose series, 48 h
UACC-257 = system: UACC-257
T47D = system: T47D
NCI-H23 = system: NCI-H23
NCI-H460 = system: NCI-H460
Hs-578T = system: Hs-578T
PC-3 = system: PC-3
BT-549 = system: BT-549
EKVX = system: EKVX
SK-MEL-28 = system: SK-MEL-28
HCT-15 = system: HCT-15
HCT-116 = system: HCT-116
SF-268 = system: SF-268
RXF 393 = system: RXF 393
RPMI-8226 = system: RPMI-8226

In the case of `Oc1cc(Cl)cc2cc(Br)cnc12`, the GI50 (UACC-257) is reported as 2.63 µM (inactive), the GI50 (T47D) is reported as 7.28 µM (inactive) and the GI50 (NCI-H23) is reported as 4.39 µM (inactive). The GI50 (NCI-H460) was 1.99 µM (inactive), the GI50 (Hs-578T) was 4.62 µM (inactive) and the GI50 (PC-3) was 2.57 µM (inactive). The GI50 (BT-549) was 1.53 µM (inactive), the GI50 (EKVX) was 4.14 µM (inactive) and the GI50 (SK-MEL-28) was 7.16 µM (inactive). For the same compound, the GI50 (HCT-15) was 0.771 µM, the GI50 (HCT-116) was 1.09 µM (active) and the GI50 (SF-268) was 1.59 µM (inactive). The GI50 (RXF 393) was 2.29 µM (inactive) and the GI50 (RPMI-8226) was 1.42 µM (inactive).
With `COc1ccc(C2c3cc4c(cc3OC(N3CCOCC3)C2C)OCO4)cc1OC` (stereo unspecified) the GI50 (UACC-257) was 16.7 µM (inactive), the GI50 (T47D) was 4.99 µM (inactive) and the GI50 (NCI-H23) was 20.4 µM (inactive). For the same compound, the GI50 (NCI-H460) was 6.3 µM (inactive), the GI50 (Hs-578T) was 3.51 µM (inactive) and the GI50 (PC-3) was 6.43 µM (inactive). For the same compound, the GI50 (BT-549) was 7.48 µM (inactive), the GI50 (EKVX) was 24.4 µM (inactive) and the GI50 (SK-MEL-28) was > 50.5 µM (inactive). The GI50 (HCT-15) was 4.76 µM, the GI50 (HCT-116) was 4.75 µM (inactive) and the GI50 (SF-268) was 13.9 µM (inactive). The GI50 (RXF 393) was 5.89 µM (inactive) and the GI50 (RPMI-8226) was 6.18 µM (inactive).
`CC/C=C/C[C@H](O[Si](C)(C)C(C)(C)C)[C@H]1C[C@H]2O[C@H]([C@@H](O)C#C[Si](C)(C)C)C[C@H]2O1` was tested, and the GI50 (UACC-257) was 9.75 µM (inactive), the GI50 (T47D) was 7.55 µM (inactive) and the GI50 (NCI-H23) was 12 µM (inactive). For the same compound, the GI50 (NCI-H460) was 15.8 µM (inactive), the GI50 (Hs-578T) was 15.3 µM (inactive) and the GI50 (PC-3) was 12.9 µM (inactive). The GI50 (BT-549) was 19.2 µM (inactive), the GI50 (EKVX) was 12.9 µM (inactive) and the GI50 (SK-MEL-28) was 14.2 µM (inactive). The GI50 (HCT-15) was 13.7 µM, the GI50 (HCT-116) was 12.1 µM (inactive) and the GI50 (SF-268) was 13.8 µM (inactive). The GI50 (RXF 393) was 6.65 µM (inactive) and the GI50 (RPMI-8226) was 12.9 µM (inactive).
In the case of `C[C@]12CC[C@H](OC(=O)Cc3ccc(N(CCCl)CCCl)cc3)CC1=CC[C@@H]1[C@@H]2CC[C@]2(C)C(=O)CC[C@@H]12`, the GI50 (UACC-257) is reported as > 100 µM (inactive), the GI50 (T47D) is reported as 92.5 µM (inactive) and the GI50 (NCI-H23) is reported as > 100 µM (inactive). For the same compound, the GI50 (NCI-H460) was > 100 µM (inactive), the GI50 (Hs-578T) was > 100 µM (inactive) and the GI50 (PC-3) was > 100 µM (inactive). For the same compound, the GI50 (BT-549) was > 100 µM (inactive), the GI50 (EKVX) was > 100 µM (inactive) and the GI50 (SK-MEL-28) was > 100 µM (inactive). For the same compound, the GI50 (HCT-15) was greater than 100 µM, the GI50 (SF-268) was > 100 µM (inactive) and the GI50 (RXF 393) was > 100 µM (inactive). For the same compound, the GI50 (RPMI-8226) was > 100 µM (inactive).
In the case of `C=C(Cl)C(Br)(CCl)CCC(Br)C(C)(C)Cl` (stereo unspecified), the GI50 (UACC-257) is reported as 2.67 µM (inactive), the GI50 (T47D) is reported as 1.15 µM (inactive) and the GI50 (NCI-H23) is reported as 3.75 µM (inactive). For the same compound, the GI50 (NCI-H460) was 6.81 µM (inactive), the GI50 (Hs-578T) was 3.66 µM (inactive) and the GI50 (PC-3) was 6.12 µM (inactive). The GI50 (BT-549) was 2.52 µM (inactive), the GI50 (EKVX) was 5.58 µM (inactive) and the GI50 (SK-MEL-28) was 4.68 µM (inactive). For the same compound, the GI50 (HCT-15) was 3.26 µM, the GI50 (HCT-116) was 1.72 µM (inactive) and the GI50 (SF-268) was 2.93 µM (inactive). The GI50 (RXF 393) was 2.72 µM (inactive) and the GI50 (RPMI-8226) was 2.06 µM (inactive).
In the case of `Nc1nc(Cl)cc(NCC2(CO)CCC(OCc3ccccc3)C2)n1` (stereo unspecified), the GI50 (UACC-257) is reported as 12.8 µM (inactive), the GI50 (T47D) is reported as 1.39 µM (inactive) and the GI50 (NCI-H23) is reported as 0.641 µM (active). The GI50 (NCI-H460) was 19.3 µM (inactive), the GI50 (Hs-578T) was 14.4 µM (inactive) and the GI50 (PC-3) was 8.24 µM (inactive). The GI50 (BT-549) was 13.9 µM (inactive), the GI50 (EKVX) was 10.2 µM (inactive) and the GI50 (SK-MEL-28) was 19.5 µM (inactive). For the same compound, the GI50 (HCT-15) was 15 µM, the GI50 (HCT-116) was 16.9 µM (inactive) and the GI50 (SF-268) was 26.2 µM (inactive). The GI50 (RXF 393) was 27 µM (inactive) and the GI50 (RPMI-8226) was 34.4 µM (inactive).
With `Cc1nc2ccccc2cc1C[N+]12CN3CN(CN(C3)C1)C2` the GI50 (UACC-257) was 18.4 µM (inactive), the GI50 (T47D) was 18.7 µM (inactive) and the GI50 (NCI-H23) was 17.5 µM (inactive). The GI50 (NCI-H460) was 18.2 µM (inactive), the GI50 (Hs-578T) was 35.6 µM (inactive) and the GI50 (PC-3) was 10.8 µM (inactive). For the same compound, the GI50 (BT-549) was 19.3 µM (inactive), the GI50 (EKVX) was 23.3 µM (inactive) and the GI50 (SK-MEL-28) was 18.7 µM (inactive). The GI50 (HCT-15) was 15.2 µM, the GI50 (HCT-116) was 5.21 µM (inactive) and the GI50 (SF-268) was 22.7 µM (inactive). For the same compound, the GI50 (RXF 393) was 16.6 µM (inactive) and the GI50 (RPMI-8226) was 3.4 µM (inactive).
With `C=C(C)COc1ccc2c(c1)CCC1C2CCC2(C)C(=O)/C(=N/O)CC12` (stereo unspecified) the GI50 (UACC-257) was 11.3 µM (inactive), the GI50 (T47D) was 2.2 µM (inactive) and the GI50 (NCI-H23) was 3.21 µM (inactive). The GI50 (NCI-H460) was 1.57 µM (inactive), the GI50 (Hs-578T) was 3.67 µM (inactive) and the GI50 (PC-3) was 2.6 µM (inactive). The GI50 (BT-549) was 6.41 µM (inactive), the GI50 (EKVX) was 2.59 µM (inactive) and the GI50 (SK-MEL-28) was 17.2 µM (inactive). For the same compound, the GI50 (HCT-15) was 2.41 µM, the GI50 (HCT-116) was 1.52 µM (inactive) and the GI50 (SF-268) was 3.81 µM (inactive). For the same compound, the GI50 (RXF 393) was 1.19 µM (inactive) and the GI50 (RPMI-8226) was 2.39 µM (inactive).
